Data published in the NIST ThermoML archive (doi:10.1021/acs.jced.7b00827).
Numbers after ± are expanded uncertainties. Blank lines part the entries; values can stand above or below the compound they belong to.

What was measured:
[1] = Liquid, Ebulliometric method (Recirculating still)
[2] = refractive index (Na D-line) (dimensionless); conditions: 101.33 kPa, Standard Abbe refractometry

Compound: O [water]
vapor or sublimation pressure ([1]; 373.05 K): 101.3 ± 0.5 kPa

Compound: Cc1cccc(O)c1 [3-methylphenol]
vapor or sublimation pressure ([1]; 422.28 K): 20 ± 0.2 kPa
Normal boiling temperature [1]: 202.20 ± 1 °C
refractive index ([2]; 293.15 K, Liquid): 1.5396 ± 0.0008
refractive index ([2]; 298.15 K, Liquid): 1.5374 ± 0.0008

The remaining lines, values ahead:

vapor or sublimation pressure ([1]; 468.25 K): 20 ± 0.2 kPa
Normal boiling temperature [1]: 249.1 ± 1 °C
refractive index ([2]; 294.15 K, Liquid): 1.4625 ± 0.0008
Compound: CC(O)CNCC(C)O (stereo not drawn) [N-(2-hydroxypropyl)-2-hydroxy-1-propanamine]

vapor or sublimation pressure ([1]; 351.38 K): 101.3 ± 0.5 kPa
Compound: CCO [ethanol]

vapor or sublimation pressure ([1]; 418.21 K): 20 ± 0.2 kPa
Normal boiling temperature [1]: 201.20 ± 1 °C
refractive index ([2]; 293.15 K, Metastable liquid): 1.5075 ± 0.0008
refractive index ([2]; 298.15 K, Metastable liquid): 1.5053 ± 0.0008
Compound: Cc1cccc(C)c1O [2,6-dimethylphenol]
